pIC50: −log10 of the molar value.
Target: T1, hSOS1 (hSOS1-mediated loading of hK-RasG12C-GDP) (Homo sapiens, UniProt Q07889)
T1 construct: hSOS1 (amino acid 564-1049); made in house; host or cells: E. coli BL21 (DE3)
T1 sequence (Q07889 with tags, fused parts or gaps): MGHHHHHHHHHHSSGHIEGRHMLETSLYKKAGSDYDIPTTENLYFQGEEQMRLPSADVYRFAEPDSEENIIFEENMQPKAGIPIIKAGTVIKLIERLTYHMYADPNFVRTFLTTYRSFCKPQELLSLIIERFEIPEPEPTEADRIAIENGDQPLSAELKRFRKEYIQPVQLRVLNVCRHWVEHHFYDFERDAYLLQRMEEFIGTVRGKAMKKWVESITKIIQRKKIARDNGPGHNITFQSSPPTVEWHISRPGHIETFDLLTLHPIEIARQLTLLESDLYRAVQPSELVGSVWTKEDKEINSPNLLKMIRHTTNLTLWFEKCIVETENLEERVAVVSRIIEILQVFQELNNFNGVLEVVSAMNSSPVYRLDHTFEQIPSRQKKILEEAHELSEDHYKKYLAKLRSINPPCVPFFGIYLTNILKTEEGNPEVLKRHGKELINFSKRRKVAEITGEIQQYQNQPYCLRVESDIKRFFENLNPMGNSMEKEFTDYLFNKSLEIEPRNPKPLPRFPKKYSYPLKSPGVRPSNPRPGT
Experiment: Biochemical Assay 3: hK-RasG12C activation assay by hSOS1 (loading with fluorescent GTP analog, HTRF)
Details: no GTP
From the text: Biochemical Assay 3: hK-RasG12C Activation Assay by hSOS1
K-Ras is a small GTPase that can bind GDP and GTP. The guanine nucleotide exchange factor SOS1 catalyzes the activation of K-Ras by promoting the exchange of GDP to GTP. SOS1 binds to K-Ras-GDP thereby opening the GDP-binding pocket to facilitate GDP release. Rebinding of excess nucleotide leads to dissociation of the K-Ras-SOS1 intermediate complex leaving K-Ras loaded with the nucleotide.
This assay quantifies human SOS1-(hSOS1-)mediated loading of human K-Ras^G12C-GDP (hK-RasG12C-GDP) with a fluorescent GTP-analog. Detection of successful loading is achieved by measuring homogenous time-resolved fluorescence resonance energy transfer (HTRF) from antiGST-Terbium (FRET donor) bound to GST-hK-RasG12C (see below) to the loaded fluorescent GTP analog (FRET-acceptor).
The fluorescent GTP-analog EDA-GTP-Dy647P1 (2′/3′-O-(2-Aminoethyl-carbamoyl)-guanosine-5′-triphosphate labelled with Dy647P1 (Dyomics GmbH, Germany)) was synthesized by Jena Biosciences GmbH (Germany) and supplied as a 1 mM aqueous solution.
The assay buffer contained 10 mM HEPES pH 7.4 (Applichem), 150 mM NaCl (Sigma), 5 mM MgCl2 (Sigma), 1 mM DTT (Thermofisher), 0.05% BSA Fraction V, pH 7.0, (ICN Biomedicals), 0.0025% (v/v) Igepal (Sigma).
Concentrations of protein batches used were optimized to be within the linear range of the HTRF signal. A hRas working solution was prepared in assay buffer containing typically 100 nM GST-hK-RasG12C and 2 nM antiGST-Tb (Cisbio, France). A hSOS1 working solution was prepared in assay buffer containing typically 20 nM hSOS1 and 200 nM EDA-GTP-Dy647P1. An inhibitor control solution was prepared in assay buffer containing 200 nM EDA-GTP-Dy647P1 without hSOS1.
Fifty nl of a 100-fold concentrated solution of the test compound in DMSO were transferred into a black microtiter test plate (384 or 1536, Greiner Bio-One, Germany) For this, either a Hummingbird liquid handler (Digilab, Mass., USA) or an Echo acoustic system (Labcyte, Calif., USA) was used.
All steps of the assay were performed at 20° C. A volume of 2.5 μl of the hRas working solution was added to all wells of the test plate using a Multidrop dispenser (Thermo Labsystems). After 10 min. preincubation, 2.5 μl of the hSOS1 working solution were added to all wells except for those wells at the side of the test plate that were subsequently filled with 2.5 μl of the inhibitor control solution. After […] incubation the fluorescence was measured with a Pherastar (BMG, Germany) using the HTRF module (excitation 337 nm, emission 1: 620 nm, emission 2:665 nm).
IC50 values were calculated by 4-Parameter fitting using a commercial software package (Genedata Screener, Switzerland).

SMILES	pIC50
Cc1nc(N[C@H](C)c2cccc(Br)c2)c2nc(N(C)C)ncc2n1 [Example 21]	≤ 4.40
Cc1nc(N[C@H](C)c2cccc(Br)c2)c2nc(N3CCOCC3)ncc2n1 [Example 22, N-[(1R)-1-(3-bromophenyl)ethyl]-2-methyl-6-(morpholin-4-yl)pyrimido[5,4-d]pyrimidin-4-amine]	4.90
CCOc1ncc2nc(C)nc(N[C@H](C)c3cccc(Br)c3)c2n1 [Example 23, N-[(1R)-1-(3-bromophenyl)ethyl]-6-ethoxy-2-methylpyrimido[5,4-d]pyrimidin-4-amine]	5.48
COc1ncc2nc(C)nc(N[C@H](C)c3cccc(Br)c3)c2n1 [Example 24, N-[(1R)-1-(3-bromophenyl)ethyl]-6-methoxy-2-methylpyrimido[5,4-d]pyrimidin-4-amine]	< 4.70
Cc1nc(N[C@H](C)c2cccc(Br)c2)c2nc(Oc3ccccc3)ncc2n1 [Example 25, N-[(1R)-1-(3-bromophenyl)ethyl]-2-methyl-6-phenoxypyrimido[5,4-d]pyrimidin-4-amine]	< 4.70
COCCOc1ncc2nc(C)nc(N[C@H](C)c3cccc(Br)c3)c2n1 [Example 26, N-[(1R)-1-(3-bromophenyl)ethyl]-6-(2-methoxyethoxy)-2-methylpyrimido[5,4-d]pyrimidin-4-amine]	< 4.70
Cc1nc(N[C@H](C)c2cccc(Br)c2)c2nc(N3CCOCC3)ccc2n1 [Example 27, N-[(1R)-1-(3-bromophenyl)ethyl]-2-methyl-6-(morpholin-4-yl)pyrido[3,2-d]pyrimidin-4-amine]	4.97
COc1ccc2nc(C)nc(N[C@H](C)c3cccc(Br)c3)c2n1 [Example 28, N-[(1R)-1-(3-bromophenyl)ethyl]-6-methoxy-2-methylpyrido[3,2-d]pyrimidin-4-amine]	< 4.70
CCOc1ccc2nc(C)nc(N[C@H](C)c3cccc(Br)c3)c2n1 [Example 29, N-[(1R)-1-(3-bromophenyl)ethyl]-6-ethoxy-2-methylpyrido[3,2-d]pyrimidin-4-amine]	< 4.70
COCCOc1ccc2nc(C)nc(N[C@H](C)c3cccc(Br)c3)c2n1 [Example 30, N-[(1R)-1-(3-bromophenyl)ethyl]-6-(2-methoxyethoxy)-2-methylpyrido[3,2-d]pyrimidin-4-amine]	≤ 4.56
Cc1nc(N[C@H](C)c2cccc(Br)c2)c2nc(N(C)C)ccc2n1 [Example 31]	< 4.70
Cc1nc(N[C@H](C)c2cccc(Br)c2)c2nc(Oc3ccccc3)ccc2n1 [Example 32, N-[(1R)-1-(3-bromophenyl)ethyl]-2-methyl-6-phenoxypyrido[3,2-d]pyrimidin-4-amine]	< 4.70
Cc1nc(N[C@H](C)c2cccc(Br)c2)c2nc(OCc3ccccc3)ccc2n1 [Example 33, 6-(benzyloxy)-N-[(1R)-1-(3-bromophenyl)ethyl]-2-methylpyrido[3,2-d]pyrimidin-4-amine]	< 4.70
Cc1nc(N[C@H](C)c2cccc(Br)c2)c2cc(F)ncc2n1 [Example 34, N-[(1R)-1-(3-bromophenyl)ethyl]-6-fluoro-2-methylpyrido[3,4-d]pyrimidin-4-amine]	< 4.70
Cc1nc(NC(C)c2ccc(Br)s2)c2cc(F)ncc2n1 (stereo not drawn) [Example 35]	< 4.70
CNCc1ccccc1-c1ccc(C(C)Nc2nc(C)nc3cnc(F)cc23)s1 (stereo not drawn) [Example 36, 6-fluoro-2-methyl-N-[1-(5-{2-[(methylamino)methyl]phenyl}thiophen-2-yl)ethyl]pyrido[3,4-d]pyrimidin-4-amine]	< 4.70
CNCc1ccccc1-c1ccc(C(C)Nc2nc(C)nc3cnc(Oc4ccc(N5CCCC5=O)cc4)cc23)s1 (stereo not drawn) [Example 38, 1-{4-[(2-methyl-4-{[1-(5-{2-[(methylamino)methyl]phenyl}thiophen-2-yl)ethyl]amino}pyrido[3,4-d]pyrimidin-6-yl)oxy]phenyl}pyrrolidin-2-one]	6.57
Cc1nc(N[C@H](C)c2cccc(Br)c2)c2cc(NCCN3CCOCC3)ncc2n1 [Example 39]	5.79
Cc1nc(N[C@H](C)c2cccc(Br)c2)c2cc(Oc3cccc(O)c3)ncc2n1 [Example 40, 3-[(4-{[(1R)-1-(3-bromophenyl)ethyl]amino}-2-methylpyrido[3,4-d]pyrimidin-6-yl)oxy]phenol]	< 4.70
Cc1nc(N[C@H](C)c2cccc(Br)c2)c2cc(Oc3cccc(C4=NCCN4C)c3)ncc2n1 [Example 41, N-[(1R)-1-(3-bromophenyl)ethyl]-2-methyl-6-[3-(1-methyl-4,5-dihydro-1H-imidazol-2-yl)phenoxy]pyrido[3,4-d]pyrimidin-4-amine]	5.41
Cc1nc(N[C@H](C)c2cccc(Br)c2)c2cc(N3CCN(Cc4cccnc4)CC3)ncc2n1 [Example 43, N-[(1R)-1-(3-bromophenyl)ethyl]-2-methyl-6-[4-(pyridin-3-ylmethyl)piperazin-1-yl]pyrido[3,4-d]pyrimidin-4-amine]	6.35
CC(=O)NCCNc1cc2c(N[C@H](C)c3cccc(Br)c3)nc(C)nc2cn1 [Example 44, N-{2-[(4-{[(1R)-1-(3-bromophenyl)ethyl]amino}-2-methylpyrido[3,4-d]pyrimidin-6-yl)amino]ethyl}acetamide]	5.79
Cc1nc(N[C@H](C)c2cccc(Br)c2)c2cc(N3CCNC(=O)C3)ncc2n1 [Example 45]	6.34
Cc1nc(N[C@H](C)c2cccc(Br)c2)c2cc(NC3CCOCC3)ncc2n1 [Example 46]	4.89
Cc1nc(NC(C)c2ccc(-c3ccccc3CN(C)C)s2)c2cc(NCCN3CCOCC3)ncc2n1 (stereo not drawn) [Example 48]	6.94
Cc1nc(N[C@H](C)c2cccc(Br)c2)c2cc(NCCn3cccn3)ncc2n1 [Example 49, N4-[(1R)-1-(3-bromophenl)pethyl]-2-methyl-N6-[2-(1H-pyrazol-1-yl)ethyl]pyrido[3,4-d]pyrimidine-4,6-diamine]	5.16
CC(=O)NCCNc1cc2c(NC(C)c3ccc(-c4ccccc4CN(C)C)s3)nc(C)nc2cn1 (stereo not drawn) [Example 51, N-{2-[(4-{[1-(5-{2-[(dimethylamino)methyl]phenyl}thiophen-2-yl)ethyl]amino}-2-methylpyrido[3,4-d]pyrimidin-6-yl)amino]ethyl}acetamide]	7.05
Cc1nc(NC(C)c2ccc(-c3ccccc3CN(C)C)s2)c2cc(Oc3cccc(O)c3)ncc2n1 (stereo not drawn) [Example 52, 3-[(4-{[1-(5-{2-[(dimethylamino)methyl]phenyl}thiophen-2-yl)ethyl]amino}-2-methylpyrido[3,4-d]pyrimidin-6-yl)oxy]phenol]	6.27
Cc1nc(NC(C)c2ccc(-c3ccccc3CN(C)C)s2)c2cc(NC3CCOCC3)ncc2n1 (stereo not drawn) [Example 53, N4-[1-(5-{2-[(dimethylamino)methyl]phenyl}-2-thienyl)ethyl]-2-methyl-N6-(tetrahydro-2H-pyran-4-yl)pyrido[3,4-d]pyrimidine-4,6-diamine]	6.62
Cc1nc(NC(C)c2ccc(-c3ccccc3CN(C)C)s2)c2cc(NCCn3cccn3)ncc2n1 (stereo not drawn) [Example 54, N4-[1-(5-{2-[(dimethylamino)methyl]phenyl}-2-thienyl)ethyl]-2-methyl-N6-[2-(1H-pyrazol-1-yl)ethyl]pyrido[3,4-d]pyrimidine-4,6-diamine]	6.72
